Reference: patent US11643421B2, “Process for the preparation of tricyclic PI3K inhibitor compounds and methods for using the same for the treatment of cancer” (priority 2015, dated 2023)

Tests used:
[1] = In vivo pharmacokinetics IV and PO; design: species or system female CD-1 mice; conditions: Mouse
Protocol: (§1) The hepatocyte stability of compound IIIat was evaluated across preclinical species. Certain in vivo pharmacokinetic parameters were also evaluated. […] Male Sprague-Dawley rats, female CD-1 mice, male cynomolgus monkeys and beagle dogs were dosed intravenously with 1 mg/kg of compound IIIat prepared in 60% PEG400/10% Ethanol. Compound IIIat was administered orally (PO) at the indicated dose in 0.5% methylcellulose with 0.2% Tween 80 (MCT).

[2] = Plasma protein binding (PPB %); format: in vitro ADME; conditions: dog
Protocol: as §1

[3] = Phase I study, brain tumor and brain tissue concentration; format: in vivo, human; conditions: concentration from brain tumor tissue, patients
[4] = test system: high-grade gliomas; experiment: Phase I study, exploratory MRI; format: in vivo, human; conditions: 34 patients, Ktrans, cerebral blood volume, apparent diffusion coefficient
Protocol: Thirty-four patients were evaluated by exploratory magnetic resonance imaging (“MRI”). […] The Ktrans changes were within the likely noise range of the measurement (based on variability in low-exposure cohorts).

[5] = molecular target: T1, human P-gp (MDR1) (Homo sapiens, UniProt P08183); experiment: Transport assay in MDR1-MDCKI cell monolayers; format: in vitro ADME; conditions: MDCK-MDR1, 2-hour incubation
T1 construct: host or cells: MDR1-MDCKI (canine kidney)
Protocol: MDR1-MDCKI cells were licensed from the NCI (National Cancer Institute, Bethesda, Md.) and Bcrp1-MDCKII, BCRP-MDCKII and Mdr1a-LLC-PK1 cells were obtained from the Netherlands Cancer Institute (Amsterdam. The Netherlands). […] The compound was dissolved in transport buffer consisting of Hank's balanced salt solution (HBSS) with 10 mM HEPES (Invitrogen Corporation, Grand Island, N.Y.). Lucifer Yellow (Sigma-Aldrich, St. Louis, Mo.) was used as the paracellular and monolayer integrity marker. […] The efflux ratio (ER) was calculated (Papp, B-A/Papp, A-B).

[6] = test system: pS6; experiment: Modulation of pS6 in the brain of healthy mice; format: in vivo, Female CD-1 mice; conditions: single oral dose 25 mg/kg
Protocol: Inhibition of the PI3K pathway was assessed in the brain of healthy mice through measurement of two markers, pAkt and pS6. […] Brains and plasma were collected at 1 and 6 hours post-dose, from 3 animals at each time point. […] For PD analysis, cell extraction buffer (Invitrogen, Camarillo, Calif.) containing 10 mM Tris pH 7.4, 100 mM NaCl, 1 mM EDTA, 1 mM EGTA, 1 mM NaF, 20 mM Na4P2O7, 2 mM Na3VO4, 1% Triton X-100, 10% glycerol, 0.1% SDS, and 0.5% deoxycholate was supplemented with phosphatase, protease inhibitors (Sigma, St. Louis, Mo.) and 1 mM PMSF and added to frozen brain biopsies. Brains were homogenized with a small pestle (Konte Glass Company, Vineland, N.J.), sonicated briefly on ice, and centrifuged at 20,000 g for 20 minutes at 4° C. Protein concentration was determined using BCA protein assay (Pierce, Rockford, Ill.). Proteins were separated by electrophoresis and transferred to NuPage nitrocellulose membranes (Invitrogen, Camarillo, Calif.). Licor Odyssey Infrared detection system (Licor, Lincoln, Nebr.) was used to assess and quantify protein expression. […] The differences in marker levels between the treated and control mice were evaluated using the Student's t-test (Prism 5, GraphPad).

[7] = test system: U87 intracranial tumors; experiment: Efficacy in U87 intracranial model; format: in vivo, mice; conditions: 15 mg/kg PO daily for 2 weeks, micro-CT
Text: These U87 and GS2 models are PTEN-deficient, with the GS2 cell line presenting a copy number loss at the PTEN locus (Gunther H S, et al.) with no detectable PTEN protein by western blot (Carlson […], Schroeder […]., “Establishment, maintenance and in vitro and in vivo applications of primary human glioblastoma multiforme (GBM) xenograft models for translational biology studies and drug discovery”, Curr Protoc Pharmacol. 2011; Chapter 14: Unit 14 16). The identity of the two cell lines was confirmed by STR profiling (DNA Diagnostics Center) using cells within 5 passages of those utilized for in vivo studies. […] The differences between treatment groups were evaluated using Student's t test in Prism (Prism 5, GraphPad). […] Body temperature was continuously monitored using a rectal probe and was maintained at 37° C. by a heated-air flow system regulated by in-house LabVIEW controller software. […] 12-20 axial 0.5-0.8 mm-thick slices were acquired with a 20×20 mm field of view (FOV), and 128×128 matrix, zero-filled to 256×256 mages. […] Brain sample preparation, micro-CT scanning, and image analysis for ex-vivo micro-CT imaging were performed as described previously (de […], Nishimura M C, Phillips H, Carano […] micro-CT imaging of the postmortem brain”, J. Neurosci. Methods. 2008; 171 (2): 207-213).

[8] = test system: p4EBP1; experiment: PI3K pathway modulation in GS2 tumors, western blot; format: in vivo, mice; conditions: 15 mg/kg PO daily 4 weeks
[9] = test system: TAO1; experiment: Kinase panel; format: biochemical; conditions: TAO1, 1 μM
[10] = molecular target: Axl (Homo sapiens, UniProt P30530); experiment: biochemical; conditions: read-out: % inhib
Chain of Axl (P30530 26-894, species assumed): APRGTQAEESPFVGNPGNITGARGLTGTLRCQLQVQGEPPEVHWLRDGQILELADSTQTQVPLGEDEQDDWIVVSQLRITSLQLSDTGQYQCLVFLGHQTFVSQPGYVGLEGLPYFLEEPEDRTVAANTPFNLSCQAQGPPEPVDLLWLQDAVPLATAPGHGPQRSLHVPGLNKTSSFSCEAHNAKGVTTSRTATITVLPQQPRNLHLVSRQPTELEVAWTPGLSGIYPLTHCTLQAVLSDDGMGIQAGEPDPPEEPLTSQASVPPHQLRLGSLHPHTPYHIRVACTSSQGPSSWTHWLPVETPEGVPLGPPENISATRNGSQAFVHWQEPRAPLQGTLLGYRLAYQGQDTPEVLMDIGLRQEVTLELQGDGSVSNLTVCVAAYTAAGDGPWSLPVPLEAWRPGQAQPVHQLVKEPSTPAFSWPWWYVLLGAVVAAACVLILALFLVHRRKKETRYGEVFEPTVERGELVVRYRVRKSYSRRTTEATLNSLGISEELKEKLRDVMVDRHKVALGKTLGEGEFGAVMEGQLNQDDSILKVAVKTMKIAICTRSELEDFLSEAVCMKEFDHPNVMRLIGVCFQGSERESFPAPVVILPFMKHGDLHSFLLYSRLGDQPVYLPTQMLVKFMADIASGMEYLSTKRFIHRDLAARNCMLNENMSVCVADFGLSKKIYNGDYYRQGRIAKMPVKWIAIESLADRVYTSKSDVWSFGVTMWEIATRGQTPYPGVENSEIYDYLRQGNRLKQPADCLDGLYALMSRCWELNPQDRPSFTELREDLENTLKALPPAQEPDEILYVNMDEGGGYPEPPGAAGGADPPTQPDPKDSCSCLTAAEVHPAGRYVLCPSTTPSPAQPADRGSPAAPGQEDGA

[11] = molecular target: CDK5/p25 (Homo sapiens, UniProt Q00535); experiment: biochemical; conditions: read-out: % inhib
Chain of CDK5/p25 (Q00535 whole entry, species assumed): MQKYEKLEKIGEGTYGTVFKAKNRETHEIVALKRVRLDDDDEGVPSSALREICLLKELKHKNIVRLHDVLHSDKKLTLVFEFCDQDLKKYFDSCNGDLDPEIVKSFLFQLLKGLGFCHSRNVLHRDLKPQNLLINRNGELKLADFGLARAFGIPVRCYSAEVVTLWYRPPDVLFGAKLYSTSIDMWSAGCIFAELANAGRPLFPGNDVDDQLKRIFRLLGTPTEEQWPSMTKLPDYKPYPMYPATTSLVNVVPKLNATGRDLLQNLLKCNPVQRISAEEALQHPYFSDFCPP
Chain of CDK5/p25 (Q15078 99-307 partner limits assumed, species assumed): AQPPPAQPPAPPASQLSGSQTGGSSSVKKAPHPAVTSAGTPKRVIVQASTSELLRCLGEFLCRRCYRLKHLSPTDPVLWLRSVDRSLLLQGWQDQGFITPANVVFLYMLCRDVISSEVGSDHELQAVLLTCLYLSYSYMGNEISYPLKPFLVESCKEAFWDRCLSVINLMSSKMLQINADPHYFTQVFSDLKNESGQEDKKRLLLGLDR

[12] = molecular target: CHK1 (Homo sapiens, UniProt O14757); experiment: biochemical; conditions: read-out: % inhib
Chain of CHK1 (O14757 whole entry, species assumed): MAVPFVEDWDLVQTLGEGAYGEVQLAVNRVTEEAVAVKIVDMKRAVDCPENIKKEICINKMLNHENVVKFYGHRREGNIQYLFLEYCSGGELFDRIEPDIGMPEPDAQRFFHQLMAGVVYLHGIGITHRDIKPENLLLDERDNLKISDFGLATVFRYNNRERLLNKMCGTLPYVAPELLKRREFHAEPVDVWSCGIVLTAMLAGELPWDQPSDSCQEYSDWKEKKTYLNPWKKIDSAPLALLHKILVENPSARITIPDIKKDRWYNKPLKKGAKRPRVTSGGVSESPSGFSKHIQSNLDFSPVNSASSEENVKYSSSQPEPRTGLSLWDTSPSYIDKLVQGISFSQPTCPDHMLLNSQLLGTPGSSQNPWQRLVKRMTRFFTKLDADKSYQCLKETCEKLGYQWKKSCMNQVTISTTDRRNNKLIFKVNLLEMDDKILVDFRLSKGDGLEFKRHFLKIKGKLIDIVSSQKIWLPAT

[13] = molecular target: CK1_gamma3 (Homo sapiens, UniProt Q9Y6M4); experiment: biochemical; conditions: read-out: % inhib
Chain of CK1_gamma3 (Q9Y6M4 whole entry): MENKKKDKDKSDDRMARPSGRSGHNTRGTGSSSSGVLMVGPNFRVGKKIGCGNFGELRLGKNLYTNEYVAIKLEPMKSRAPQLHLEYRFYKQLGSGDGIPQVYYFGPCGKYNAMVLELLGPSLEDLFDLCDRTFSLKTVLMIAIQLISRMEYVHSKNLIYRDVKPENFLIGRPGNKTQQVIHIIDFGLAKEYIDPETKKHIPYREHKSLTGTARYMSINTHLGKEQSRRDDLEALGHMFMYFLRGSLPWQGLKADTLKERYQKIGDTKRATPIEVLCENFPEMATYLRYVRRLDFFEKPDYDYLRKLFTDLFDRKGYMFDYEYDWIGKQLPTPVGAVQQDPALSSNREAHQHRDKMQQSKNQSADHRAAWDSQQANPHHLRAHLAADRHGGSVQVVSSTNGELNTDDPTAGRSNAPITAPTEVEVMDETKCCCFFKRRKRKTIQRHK

[14] = molecular target: Flt1 (Homo sapiens, UniProt P17948); experiment: biochemical; conditions: read-out: % inhib
Chain of Flt1 (P17948 27-1338): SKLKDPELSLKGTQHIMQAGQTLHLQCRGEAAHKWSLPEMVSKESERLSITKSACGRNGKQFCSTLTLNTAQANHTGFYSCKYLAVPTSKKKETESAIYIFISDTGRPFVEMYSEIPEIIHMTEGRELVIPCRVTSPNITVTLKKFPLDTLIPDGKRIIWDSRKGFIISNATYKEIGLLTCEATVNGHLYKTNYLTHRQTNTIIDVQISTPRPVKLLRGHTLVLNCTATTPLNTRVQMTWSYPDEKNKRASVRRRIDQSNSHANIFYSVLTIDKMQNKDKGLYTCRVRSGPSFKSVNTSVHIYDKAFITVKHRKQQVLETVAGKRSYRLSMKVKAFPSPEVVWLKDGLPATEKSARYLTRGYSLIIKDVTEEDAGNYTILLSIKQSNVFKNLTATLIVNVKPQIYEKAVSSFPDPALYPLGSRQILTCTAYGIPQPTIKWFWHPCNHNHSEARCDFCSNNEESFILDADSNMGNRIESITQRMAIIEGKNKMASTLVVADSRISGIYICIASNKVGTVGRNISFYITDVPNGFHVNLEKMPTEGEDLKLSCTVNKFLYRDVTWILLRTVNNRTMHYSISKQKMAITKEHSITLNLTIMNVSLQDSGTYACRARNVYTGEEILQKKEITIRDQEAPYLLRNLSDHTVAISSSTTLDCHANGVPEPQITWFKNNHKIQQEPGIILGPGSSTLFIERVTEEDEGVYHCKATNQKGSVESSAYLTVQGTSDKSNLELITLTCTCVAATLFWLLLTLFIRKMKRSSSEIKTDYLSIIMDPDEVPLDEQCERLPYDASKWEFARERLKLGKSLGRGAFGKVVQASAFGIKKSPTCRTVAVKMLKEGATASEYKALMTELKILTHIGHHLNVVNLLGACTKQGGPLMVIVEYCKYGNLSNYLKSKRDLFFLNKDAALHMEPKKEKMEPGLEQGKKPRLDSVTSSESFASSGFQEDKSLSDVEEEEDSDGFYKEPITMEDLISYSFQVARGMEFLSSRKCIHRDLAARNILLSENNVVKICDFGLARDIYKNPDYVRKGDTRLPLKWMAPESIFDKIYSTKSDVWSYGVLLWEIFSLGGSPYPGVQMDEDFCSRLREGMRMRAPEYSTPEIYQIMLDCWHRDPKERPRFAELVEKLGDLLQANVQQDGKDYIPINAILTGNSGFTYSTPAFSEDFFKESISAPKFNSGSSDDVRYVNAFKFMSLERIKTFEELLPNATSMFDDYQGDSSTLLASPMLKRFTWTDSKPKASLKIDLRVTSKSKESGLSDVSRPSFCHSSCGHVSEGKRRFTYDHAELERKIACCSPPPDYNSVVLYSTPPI

[15] = molecular target: GRK5 (Homo sapiens, UniProt P34947); experiment: biochemical; conditions: read-out: % inhib
Chain of GRK5 (P34947 whole entry): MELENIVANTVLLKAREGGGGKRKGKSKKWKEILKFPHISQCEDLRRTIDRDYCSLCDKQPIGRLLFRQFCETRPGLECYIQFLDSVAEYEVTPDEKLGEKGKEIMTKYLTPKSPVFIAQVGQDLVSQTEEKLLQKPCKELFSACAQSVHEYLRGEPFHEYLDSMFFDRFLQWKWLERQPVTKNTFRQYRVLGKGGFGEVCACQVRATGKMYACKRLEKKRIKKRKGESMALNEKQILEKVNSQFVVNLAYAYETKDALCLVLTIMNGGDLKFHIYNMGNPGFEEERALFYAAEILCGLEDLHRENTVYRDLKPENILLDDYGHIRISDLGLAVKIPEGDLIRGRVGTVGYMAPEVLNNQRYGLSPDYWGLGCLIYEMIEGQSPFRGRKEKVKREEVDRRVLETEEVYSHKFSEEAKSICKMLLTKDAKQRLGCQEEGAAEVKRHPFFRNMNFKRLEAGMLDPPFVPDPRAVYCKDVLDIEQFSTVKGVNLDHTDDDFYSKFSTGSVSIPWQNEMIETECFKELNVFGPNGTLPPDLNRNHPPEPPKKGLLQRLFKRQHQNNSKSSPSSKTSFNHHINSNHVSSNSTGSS

[16] = molecular target: InsR (Homo sapiens, UniProt P06213); experiment: biochemical; conditions: read-out: % inhib
[17] = molecular target: MEK1 (Homo sapiens, UniProt Q02750); experiment: biochemical; conditions: read-out: % inhib
Chain of MEK1 (Q02750 whole entry): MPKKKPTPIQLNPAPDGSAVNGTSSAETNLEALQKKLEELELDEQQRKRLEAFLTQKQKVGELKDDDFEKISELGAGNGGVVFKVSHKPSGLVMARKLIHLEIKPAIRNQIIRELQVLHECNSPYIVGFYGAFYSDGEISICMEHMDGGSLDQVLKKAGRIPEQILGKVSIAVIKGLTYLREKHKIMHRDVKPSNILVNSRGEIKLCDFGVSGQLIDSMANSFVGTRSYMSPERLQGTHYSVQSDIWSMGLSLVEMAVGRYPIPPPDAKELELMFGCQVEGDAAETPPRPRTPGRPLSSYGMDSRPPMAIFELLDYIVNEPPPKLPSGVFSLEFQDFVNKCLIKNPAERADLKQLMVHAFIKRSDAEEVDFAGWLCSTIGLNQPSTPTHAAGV

[18] = molecular target: PKC_eta (Homo sapiens, UniProt P24723); experiment: biochemical; conditions: read-out: % inhib

CC1(C)OCCn2c1nc1c(N3CCOCC3)nc(-c3cnc(N)nc3)nc12 [GDC-0084, 5-(6,6-dimethyl-4-morpholino-8,9-dihydro-6H-[1,4]oxazino[3,4-e]purin-2-yl)pyrimidin-2-amine]
In vivo Cl ([1]; IV 1 mg/kg): 17 mL/min/kg | AUC ([1]; PO 25 mg/kg in MCT): 47 μm·h | Cmax ([1]; PO 25 mg/kg in MCT): 4.6 μm | F % ([1]; PO 25 mg/kg in MCT): 75% | fraction unbound [2]: 0.34 | blood brain barrier crossing and brain distribution [3]: crosses the blood brain barrier and uniformly distributes throughout the brain | MRI derived metrics versus drug plasma exposure [4]: none of the MRI derived metrics (Ktrans, Cerebral blood volume, apparent diffusion coefficient) showed any significant trend with drug plasma exposure | Papp A→B at 2 h, 5 μM [5]: 13.5 ± 0.9 ×10⁻⁶ cm/s | Suppression of pS6 in brain ([6]; 1 hour post dose): 90% | Suppression of pS6 in brain ([6]; 6 hours after dosing): greater than 70% | U87 tumor volume reduction versus vehicle control [7]: approximately 70% | Suppression of p4EBP1 in GS2 tumors ([8]; 2 hours after final administration): 43% | p4EBP1 level in GS2 tumors ([8]; 8 hours post-dose): back to baseline levels | % inhib [9]: −1.3% | inhibition at 1 µM [10]: 6% | inhibition at 1 µM [11]: 0.3% | inhibition at 1 µM [12]: 0.6% | inhibition at 1 µM [13]: -0.2% | inhibition at 1 µM [14]: 0.6% | inhibition at 1 µM [15]: -10% | inhibition at 1 µM [16]: 6% | inhibition at 1 µM [17]: -0.1% | inhibition at 1 µM [18]: -9%
